Experimental findings from patent US9205046B2, “Enhanced stability of inverse thermal gelling composite hydrogels” (The Governing Council of the University of Toronto, priority 2005, dated 2015) are described below.

“Also recorded” adds a separate entry of the source. Bounds are passed on as bounds.

Data set [1] can be described thus: In vitro drug release from HAMC hydrogels and composites. The note with it: for burst release from PLGA particles in composite versus free particles: composite 2:3 HMW HAMC. It is filed as physicochemical. On the procedure:
Release profiles of each particle encapsulated drug were obtained by depositing approximately 150 mg of drug loaded 2:3 HMW HAMC into polypropylene sample tubes, warming to 37° C., and adding 600 μL warm aCSF. […] Particle loads were typically 30-40 mg PLGA per gram of composite. […] All sample aliquots were immediately frozen and stored at −20° C. until analysis. […] Each sample was thawed immediately prior to assay and clear supernatant analyzed for dissolved drug.

The nature of data set [2]: Characterization of drug loaded PLGA particles. It is filed as physicochemical. The note with it: laser diffraction or dynamic light scattering. As to the method:
PLGA microparticle synthesis was optimized for each factor encapsulated and thus synthesis varied slightly for each factor, described below for EGF, dbcAMP, IgG and α-chymotrypsin. Microparticle size was determined by laser diffraction (Mastersizer 2000™, Malvern Instruments, Malvern, UK): nanoparticle size was determined by dynamic light scattering (Zetasizer Nano ZS™, Malvern Instruments). Encapsulation efficiency was defined as the fraction of drug detected per unit mass of particle compared to the theoretical maximum. Particle yield is the mass of recovered particulate PLGA adjusted for drug content, divided by the initial PLGA mass. Drug loading is the mass fraction of drug in the particles expressed as microgram of drug per milligram of particles.
EGF content was determined by degrading the PLGA in 1 M NaOH for 24 h at 37° C., centrifuging the resulting suspension and assaying the supernatant for total protein using the BCA assay.
dbcAMP content was determined by DCM/water solvent extraction. PLGA was dissolved in DCM and extracted 3×. Aqueous dbcAMP concentration was determined by UV absorbance at 273 nm on a Nanodrop ND-1000™ (Thermo Fisher Scientific).
Protein content was determined based on a method by Wong [Wong, H. M., Wang, J. J., and Wang, C, In Vitro Sustained Release of Human Immunoglobulin G from Biodegradable Microspheres. Ind. Eng. Chem. Res., 2001. 40: p. 933-948]. […]

Data set [3] is described as follows: Drug diffusivity in HMW HAMC. The note with it: in 2:3 HMW HAMC. Type of data set: physicochemical. From the text:
The diffusivity of a given drug in HMW HAMC, D, was normalized to its diffusivity in water, Do, to determine the impact of HMW HAMC on molecular diffusion [N. A. Peppas, C. T. Reinhart, Solute diffusion in swollen membranes. 1. A new theory. J. Membr. Sci. 15 (3) (1983) 275-287. Approximations of D for NBQX, α-chymotrypsin, and IgG in HMW HAMC were estimated according to the one dimensional, unidirectional, thin film approximation for non-swelling samples at short times [J. Crank, The Mathematics of Diffusion, Clarendon Press, Oxford, 1956.]. Normalized diffusion coefficients were then determined with respect to previously reported values of Do according to:
[formula] Where Mt/M∞ is the cumulative mass of drug detected at time, t, divided by the total mass released and l is the sample thickness.
Approximately 100 mg of HAMC with a drug loading of 100-1000 μg/mL was deposited into a cylindrical sample tube to yield a gel with thickness of 0.3 cm and one exposed surface. Samples were warmed to 37° C. and combined with 900 μL of warm aCSF. The buffer was sampled with total replacement at 0.5, 1, 2, and 5 hours and analyzed and described below.

In data set [4] the test system is mature blood vessels in the dorsal horns of the injured spinal cord. Nature of the data set: Intrathecal FGF2 delivery with composite HAMC after compressive spinal cord injury, SMI-71 blood vessel count. The following applies: rat, moderate compressive SCI at T2, 10 μl intrathecal composite 1:3 HMW HAMC with FGF2 PLGA nanoparticles, 28 days. Type of data set: in vivo, Sprague Dawley rats. As to the method: Physical hydrogel blends of hyaluronan (HA) and methyl cellulose (MC) were prepared in aCSF at 1 wt % 2600 kg/mol HA and 3 wt % 300 kg/mol MC as previously reported (1:3 HMW HAMC [M. D. Baumann, C. E. Kang, J. C. Stanwick, Y. Wang, H. Kim, Y. Lapitsky, and M. S. Shoichet, An injectable drug delivery platform for sustained combination therapy, J Control Release. (2009)]. Briefly, MC and HA were sequentially mechanically dispersed in aCSF and allowed to dissolve at 4° C. To form composite 1:3 HMW HAMC, slurries of particles were added together for a final concentration of 100 mg/mL. PLGA nanoparticles were prepared from a w/o/w double emulsion as previously described [[…]], either as blank nanoparticles or encapsulating FGF2.
All animal procedures were performed in accordance with the Guide to the Care and Use of Experimental Animals (Canadian Council on Animal Care) and protocols were approved by the Animal Care Committee of the Research Institute of the University Health Network. […] Blood vessels were then counted in the dorsal horns of the spinal cord (See FIG. 8). Statistical significance was determined by ANOVA followed by Tukey's post-hoc test.

`CCCC(=O)Nc1ncnc2c1ncn2[C@@H]1O[C@@H]2COP(=O)([O-])O[C@H]2[C@H]1OC(=O)CCC.[Na+]` [dbcAMP, N^6,2′-O-dibutyryladenosine 3′,5′-cyclic monophosphate sodium salt, reference compound]: the “duration of in vitro release of PLGA particle encapsulated drug” value in data set [1] (PLGA particles dispersed in composite 2:3 HMW HAMC) stood at 28 days. In addition, the “burst release from PLGA particles in composite versus free particles” value in data set [1] is recorded as “reduction in burst release”. Further, the “Particle Size (μm)” value in data set [2] is 37 ± 14 μm.
In data set [3], “2,3-Dioxo-6-nitro-1,2,3,4-tetrahydrobenzo[f]quinoxaline-7-sulfonamide disodium salt [NBQX, reference compound]” yielded a normalized diffusion coefficient of around 0.1. Moreover, in data set [1] (dissolved in 2:3 HMW HAMC), the “release mechanism of dissolved drug” value is “diffusion limited”.
On to “EGF: Recombinant human epidermal growth factor”, for which the “burst release from PLGA particles in composite versus free particles” value in data set [1] is recorded as “atypical behaviour”. Besides, in data set [2], the “Particle Size (μm)” value turned out to be 10 ± 2 μm.
For “FGF-2: Recombinant human basic fibroblast growth factor”, in data set [3], the normalized diffusion coefficient is around 0.1. Also, the “release mechanism of dissolved drug” value in data set [1] (dissolved in 2:3 HMW HAMC) is “diffusion limited”. For the same compound, in data set [1] (dissolved in 2:3 HMW HAMC, aCSF, 37 °C), the “time to complete in vitro release of dissolved drug” value is at most 4 days. The “mature blood vessels in the dorsal horns (angiogenesis)” value in data set [4] is listed as “results in angiogenesis; also recorded: enhanced blood vessels”.
